Patent US20260295053A1, “COMPOUNDS FOR DEGRADATION AND INHIBITION OF KRAS (G12D) PROTEIN” (Shenzhen Ionova Life Science Co., Ltd., priority 2023, published 2026)

Columns and labels:
AsPC-1 cells = assay: AsPC-1 cell proliferation assay (CellTiter Glo); format: cell-based; conditions: 6 days
Procedure, shortened: (§1)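 AsPC-1 cells: for degradation, grown to ~90% confluency, treated 24 h with 1:3 compound series ([…] to 1.5 nM), then fixed and immunostained for KRAS G12D and β-actin, read by infrared fluorescence, DC50 fitted. Proliferation: 3,500 cells/well, 6-day treatment, CellTiter Glo luminescence, IC50 fitted.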

KRAS (G12D) = molecular target: T1, KRAS (G12D) (Homo sapiens, UniProt P01116, G12D); assay: KRAS (G12D) cellular degradation assay in AsPC-1 cells; format: cell-based; conditions: 24 hours, antibody fluorescence (Odyssey CLX), DC50 half-maximal degradation concentration
T1 construct: in-cell western with KRAS G12D antibody after 24 h
Procedure, shortened: as §1

T1 sequence (P01116 1-188 isoform P01116-2 G12D): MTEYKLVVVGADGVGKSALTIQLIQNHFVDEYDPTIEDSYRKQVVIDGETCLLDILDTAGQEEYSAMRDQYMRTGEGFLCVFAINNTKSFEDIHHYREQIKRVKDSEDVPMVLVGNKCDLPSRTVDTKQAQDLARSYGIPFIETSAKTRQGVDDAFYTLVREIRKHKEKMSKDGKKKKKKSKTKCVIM

SMILES	IC50 (AsPC-1 cells) [nM]	DC50 (KRAS (G12D)) [nM]	IC50 (AsPC-1 cells; Homo sapiens, ASPC1, 144 h) [nM]
CO[C@H]1C[C@H](Oc2nc(N3CCCNCC3)c3cc(C4CC4)c(-c4c(C)c(F)cc5[nH]ncc45)c(OCc4ccc(-c5cn([C@H](C(=O)N6C[C@H](O)C[C@H]6C(=O)N[C@@H](CO)c6ccc(-c7scnc7C)cc6)C(C)C)nn5)cc4)c3n2)C1 [Example 199, (2S,4R)-1-((2S)-2-(4-(4-(((6-cyclopropyl-4-(1,4-diazepan-1-yl)-7-(6-fluoro-5-methyl-1H-indazol-4-yl)-2-((1r,3r)-3-methoxycyclobutoxy)quinazolin-8-yl)oxy)methyl)phenyl)-1H-1,2,3-triazol-1-yl)-3-methylbutanoyl)-4-hydroxy-N—((R)-2-hydroxy-1-(4-(4-methylthiazol-5-yl)phenyl)ethyl)pyrrolidine-2-carboxamide]	–	< 10	< 10
CCn1nccc1-c1ccc([C@@H](NC(=O)[C@@H]2C[C@@H](O)CN2C(=O)[C@H](C(C)C)n2cc(-c3ccc(COc4c(-c5c(C)c(F)c(F)c6[nH]ncc56)c(C5CC5)cc5c(N6C[C@@H]7C[C@H]6CN7)nc(OC[C@H](C)OC)nc45)cc3)nn2)[C@H](C)O)cc1 [Example 89, (2S,4R)-1-((2S)-2-(4-(4-(((4-((1S,4S)-2,5-diazabicyclo[2.2.1]heptan-2-yl)-6-cyclopropyl-7-(6,7-difluoro-5-methyl-1H-indazol-4-yl)-2-((S)-2-methoxypropoxy)quinazolin-8-yl)oxy)methyl)phenyl)-1H-1,2,3-triazol-1-yl)-3-methylbutanoyl)-N-((1R,2S)-1-(4-(1-ethyl-1H-pyrazol-5-yl)phenyl)-2-hydroxypropyl)-4-hydroxypyrrolidine-2-carboxamide]	–	< 10	< 10
CO[C@@H](C)COc1nc(N2C[C@H]3C[C@@H]2CN3)c2cc(C3CC3)c(-c3c(C)c(F)cc4[nH]ncc34)c(OCc3ccc(-c4cn([C@H](C(=O)N5C[C@H](O)C[C@H]5C(=O)N[C@@H](CO)c5ccc(-c6scnc6C)cc5)C(C)C)nn4)cc3)c2n1 (single isomer, unassigned) [Example 2B]	> 1000	> 1000	–
CCn1nccc1-c1ccc([C@H](CO)NC(=O)[C@@H]2C[C@@H](O)CN2C(=O)[C@H](C(C)C)n2cc(-c3ccc(COc4c(-c5c(C)c(F)cc6[nH]ncc56)c(C5CC5)cc5c(N6C[C@@H]7C[C@H]6CN7)nc(OC(COC)C(F)(F)F)nc45)cc3)nn2)cc1 (stereo partly drawn) [Example 58, (2S,4R)-1-((2S)-2-(4-(4-(((4-((1S,4S)-2,5-diazabicyclo[2.2.1]heptan-2-yl)-6-cyclopropyl-7-(6-fluoro-5-methyl-1H-indazol-4-yl)-2-((1,1,1-trifluoro-3-methoxypropan-2-yl)oxy)quinazolin-8-yl)oxy)methyl)phenyl)-1H-1,2,3-triazol-1-yl)-3-methylbutanoyl)-N—((R)-1-(4-(1-ethyl-1H-pyrazol-5-yl)phenyl)-2-hydroxyethyl)-4-hydroxypyrrolidine-2-carboxamide]	–	< 10	< 10
CO[C@H]1C[C@H](Oc2nc(N(C)[C@H]3CCNC3)c3cc(C4CC4)c(-c4c(C)c(F)cc5[nH]ncc45)c(OCc4ccc(-c5cn([C@H](C(=O)N6C[C@H](O)C[C@H]6C(=O)N[C@H](c6ccc(-c7scnc7C)cc6)[C@H](C)O)C(C)C)nn5)cc4)c3n2)C1 [Example 171, (2S,4R)-1-((2S)-2-(4-(4-(((6-cyclopropyl-7-(6-fluoro-5-methyl-1H-indazol-4-yl)-2-((1r,3S)-3-methoxycyclobutoxy)-4-(methyl((S)-pyrrolidin-3-yl)amino)quinazolin-8-yl)oxy)methyl)phenyl)-1H-1,2,3-triazol-1-yl)-3-methylbutanoyl)-4-hydroxy-N-((1R,2S)-2-hydroxy-1-(4-(4-methylthiazol-5-yl)phenyl)propyl)pyrrolidine-2-carboxamide]	–	< 10	< 10

Other lines, results leading:

IC50 (AsPC-1 cells) [nM]	DC50 (KRAS (G12D)) [nM]	IC50 (AsPC-1 cells; Homo sapiens, ASPC1, 144 h) [nM]	SMILES
< 10	< 10	–	CCn1nccc1-c1ccc([C@@H](NC(=O)[C@@H]2C[C@@H](O)CN2C(=O)[C@H](C(C)C)n2cc(-c3ccc(COc4c(-c5c(C)c(F)cc6[nH]ncc56)c(C5CC5)cc5c(N(C)[C@H]6CCNC6)nc(OC[C@H](C)OC)nc45)cc3)nn2)[C@H](C)O)c2c1CC2 [Example 164, (2S,4R)-1-((2S)-2-(4-(4-(((6-cyclopropyl-7-(6-fluoro-5-methyl-1H-indazol-4-yl)-2-((S)-2-methoxypropoxy)-4-(methyl((S)-pyrrolidin-3-yl)amino)quinazolin-8-yl)oxy)methyl)phenyl)-1H-1,2,3-triazol-1-yl)-3-methylbutanoyl)-N-((1R,2S)-1-(5-(1-ethyl-1H-pyrazol-5-yl)bicyclo[4.2.0]octa-1(6),2,4-trien-2-yl)-2-hydroxypropyl)-4-hydroxypyrrolidine-2-carboxamide]
–	10 to 100	10 to 100	CCn1nccc1-c1ccc([C@H](CO)NC(=O)[C@@H]2C[C@@H](O)CN2C(=O)[C@H](C(C)C)n2cc(-c3ccc(COc4c(-c5c(C)c(F)cc6[nH]ncc56)c(C5CC5)cc5c(N6CCCCCC6)nc(OC[C@H](C)OC)nc45)cc3)nn2)cc1 [Example 177, (2S,4R)-1-((2S)-2-(4-(4-(((4-(azepan-1-yl)-6-cyclopropyl-7-(6-fluoro-5-methyl-1H-indazol-4-yl)-2-((S)-2-methoxypropoxy)quinazolin-8-yl)oxy)methyl)phenyl)-1H-1,2,3-triazol-1-yl)-3-methylbutanoyl)-N—((R)-1-(4-(1-ethyl-1H-pyrazol-5-yl)phenyl)-2-hydroxyethyl)-4-hydroxypyrrolidine-2-carboxamide]
–	< 10	< 10	CCn1nccc1-c1ccc([C@H](CO)NC(=O)[C@@H]2C[C@@H](O)CN2C(=O)[C@H](C(C)C)n2cc(-c3ccc(COc4c(-c5c(C)c(F)cc6[nH]ncc56)c(C5CC5)cc5c(N6CCNCC[C@H]6C)nc(OC[C@H](C)OC)nc45)cc3)nn2)cc1 [Example 154, (2S,4R)-1-((2S)-2-(4-(4-(((6-cyclopropyl-7-(6-fluoro-5-methyl-1H-indazol-4-yl)-2-((S)-2-methoxypropoxy)-4-((R)-7-methyl-1,4-diazepan-1-yl)quinazolin-8-yl)oxy)methyl)phenyl)-1H-1,2,3-triazol-1-yl)-3-methylbutanoyl)-N—((R)-1-(4-(1-ethyl-1H-pyrazol-5-yl)phenyl)-2-hydroxyethyl)-4-hydroxypyrrolidine-2-carboxamide]
–	< 10	< 10	CCn1nccc1-c1ccc([C@@H](NC(=O)[C@@H]2C[C@@H](O)CN2C(=O)[C@H](C(C)C)n2cc(-c3ccc(COc4c(-c5c(C)c(F)cc6[nH]ncc56)c(C5CC5)cc5c(N6C[C@@H]7C[C@H]6CN7)nc(OC[C@H](C)OC)nc45)cc3)nn2)[C@@H](O)C(C)C)cc1 [Example 95, (2S,4R)-1-((2S)-2-(4-(4-(((4-((1S,4S)-2,5-diazabicyclo[2.2.1]heptan-2-yl)-6-cyclopropyl-7-(6-fluoro-5-methyl-1H-indazol-4-yl)-2-((S)-2-methoxypropoxy)quinazolin-8-yl)oxy)methyl)phenyl)-1H-1,2,3-triazol-1-yl)-3-methylbutanoyl)-N-((1R,2S)-1-(4-(1-ethyl-1H-pyrazol-5-yl)phenyl)-2-hydroxy-3-methylbutyl)-4-hydroxypyrrolidine-2-carboxamide]
